Source: PMC9849758, “Chemically diverse activity-based probes with unexpected inhibitory mechanisms targeting trypsin-like serine proteases” (Frontiers in Chemistry, 2023)
“Also recorded” adds a separate entry of the source. Where a name gives a salt, the structure may show the parent alone.

Legend:
Format in all cases: biochemical
[1] = biological target: T1, Trypsin-3 (Homo sapiens, UniProt P35030); assay: Kinetic progress curves (kapp, K1, KI*, mechanism); parameters: purchased R&D; conditions: for Ki / Trypsin-3 kapp: mean ± SD; for Trypsin-3 kapp: apparent second-order rate constant from progress curves; for Trypsin-3 mechanism of inhibition: defined by the progress curves: slow-binding (Rev.) or irreversible (Irrev.)
T1 sequence (P35030 1-304): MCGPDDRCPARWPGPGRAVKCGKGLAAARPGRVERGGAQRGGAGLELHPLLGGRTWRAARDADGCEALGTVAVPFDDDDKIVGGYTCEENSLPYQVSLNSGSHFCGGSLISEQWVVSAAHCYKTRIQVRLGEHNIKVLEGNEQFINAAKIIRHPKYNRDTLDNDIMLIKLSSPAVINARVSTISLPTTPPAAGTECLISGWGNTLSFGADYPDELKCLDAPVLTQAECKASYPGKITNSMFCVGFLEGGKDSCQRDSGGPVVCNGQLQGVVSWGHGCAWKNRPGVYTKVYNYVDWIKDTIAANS
Method: (§1) Because the compounds described in this paper were previously described as irreversible inhibitors, the IC50 value is inversely correlated with the second-order rate constant of inactivation. For a simple pseudo-first-order inactivation process, the activity after incubation with inhibitor (vi) varies with the inhibitor concentration (i), as described in the following equation: vi=v0·e^−kit where v0 is the activity in the absence of an inhibitor, k is the second-order rate constant of inactivation, and t is the time. The inactivation rate constant was determined from the time course of inhibition.
(§2) Kinetic assays were performed in the following manner. The inhibitor was mixed with the substrate, and the buffer solution with the enzyme was added at the time zero. The progress curves show the release of pNA or AMC as a function of time. Initially, no inhibitor is bound to the enzyme, and the tangent to the progress curve (dA/dt) is proportional to the free enzyme concentration. The free enzyme concentration decreases over time due to inhibitor binding kinetics, as described above. Progress curves were recorded in pseudo-first-order conditions ([I]0>>[E]0) and with less than 10% conversion of the substrate during the entire time course. In these conditions, dA/dt decreases exponentially with time. The progress curves were fitted with the integrated rate equation with GraFit7 to yield a value for kobs, a pseudo-first-order rate constant. At=Ao+vs∙t+vi−vs∙1−e^−kobs∙t/kobs where At is the absorbance at time t, A0 is the absorbance at time zero, vi is the initial rate and vs is the velocity at the steady-state.
(§3) The apparent second-order rate constant (kapp) was calculated from the slope of the linear part of the plot of kobs vs. the inhibitor concentration ([I]0). In the case of competition between the inhibitor and the substrate, kapp is smaller than the “real” second-order rate constant k discussed above because a certain fraction of the enzyme is present as an enzyme-substrate complex. kapp depends on the substrate concentration used in the experiment, as described by [Lambeir et al. (1996)].
(§4) The apparent equilibrium constants were obtained from the following equations, vi/vo=1/1+I/K1; vS/vo=1/1+I/KI* where vi is the initial rate, vs is the steady-state velocity and vo is the uninhibited initial rate.

[2] = biological target: T2, uPA (Homo sapiens, UniProt P00749); assay: Kinetic progress curves (kapp, mechanism); conditions: for uPA kapp: apparent second-order rate constant from progress curves, mean ± SD; for uPA mechanism of inhibition: defined by the progress curves: slow-binding (Rev.) or irreversible (Irrev.)
T2 construct: purchased HYPHEN BioMed
Method: as §1, §2, §3, §4

[3] = biological target: β-tryptase (Homo sapiens, UniProt P20231); assay: Kinetic progress curves (kapp, K1, KI*, mechanism); parameters: purchased EnzoLife Sciences; conditions: for β-tryptase kapp: apparent second-order rate constant from progress curves; for β-tryptase kapp / Ki: mean ± SD; for β-tryptase mechanism of inhibition: defined by the progress curves: slow-binding (Rev.) or irreversible (Irrev.)
β-tryptase, sequence (P20231 31-275): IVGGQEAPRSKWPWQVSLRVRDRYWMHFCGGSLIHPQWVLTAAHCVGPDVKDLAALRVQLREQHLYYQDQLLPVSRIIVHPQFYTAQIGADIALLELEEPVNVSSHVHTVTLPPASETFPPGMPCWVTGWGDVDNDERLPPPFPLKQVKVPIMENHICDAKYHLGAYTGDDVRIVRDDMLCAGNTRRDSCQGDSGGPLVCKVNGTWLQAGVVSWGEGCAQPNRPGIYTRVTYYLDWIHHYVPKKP
Method: as §1, §2, §3, §4

[4] = Trypsin-3 K1, apparent equilibrium constant of the first step of slow-binding
[5] = Trypsin-3 KI*, apparent equilibrium constant of the overall process
[6] = β-tryptase K1, apparent equilibrium constant of the first step of slow-binding
[7] = β-tryptase KI*, apparent equilibrium constant of the overall process

| SMILES | Ki [1, 4] | Ki [1, 5] | Trypsin-3 kapp [1] | Trypsin-3 mechanism of inhibition [1] | uPA kapp [2] | uPA mechanism of inhibition [2] | β-tryptase kapp [3] | β-tryptase mechanism of inhibition [3] | Ki [3, 6] | Ki [3, 7] | selectivity for trypsin-3 over the other tested proteases ([1]; based on the kapp values) | selectivity for trypsin-3 over β-tryptase ([1]; based on the kapp values) | selectivity for trypsin-3 versus thrombin ([1]; based on the kapp values) | selectivity for trypsin-3 versus uPA ([1]; based on the kapp values) |
| --- | --- | --- | --- | --- | --- | --- | --- | --- | --- | --- | --- | --- | --- | --- |
| C[C@@H]1NC(=O)N[C@@H]1CCCCCC(=O)NCCOCCOCCOCCn1cc(CCCOC(=O)NC(Cc2ccc(NC(=N)N)cc2)P(=O)(Oc2ccccc2)Oc2ccccc2)nn1 (stereo partly drawn) [50b, 3-(1-(18-((4R,5S)-5-methyl-2-oxoimidazolidin-4-yl)-13-oxo-3,6,9-trioxa-12-azaoctadecyl)-1H-1,2,3-triazol-4-yl)propyl (1-(diphenoxyphosphoryl)-2-(4-guanidinophenyl)ethyl)carbamate trifluoroacetate salt] | 98 ± 22 nM | 3 ± 0.2 nM | 49 × 10^3 ± 2979 M^−1 s^−1 | Rev. | 33000 ± 12000 M⁻¹ s⁻¹ | Irrev. | 32 × 10^2 ± 613 M^−1 s^−1 | Rev. | 3280 ± 500 nM | 410 ± 30 nM | – | – | – | – |
| C#CCCCOC(=O)NC(CCCNC(=N)N)P(=O)(Oc1ccccc1)Oc1ccccc1 (stereo not drawn) [32b] | – | – | 18 × 10^2 ± 66 M^−1 s^−1 | Irrev. | 41 ± 4 M⁻¹ s⁻¹ | Irrev. | 41 ± 5 M⁻¹ s⁻¹ | Irrev. | – | – | at least 30 fold | – | – | – |
| CC(=O)Nc1ccc(OP(=O)(Oc2ccc(NC(C)=O)cc2)C(NC(=O)OCCCc2cn(CCOCCOCCOCCNC(=O)CCCCC[C@H]3NC(=O)N[C@H]3C)nn2)c2ccc(NC(=N)N)cc2)cc1 (stereo partly drawn) [56b] | – | – | 334 ± 85 M⁻¹ s⁻¹ | Irrev. | 62 ± 2 M⁻¹ s⁻¹ | Irrev. | 321 ± 2 M⁻¹ s⁻¹ | Irreversible; also recorded: Irrev | – | – | – | – | – | – |
| C[C@@H]1NC(=O)N[C@@H]1CCCCCC(=O)NCCOCCOCCOCCn1cc(CCCOC(=O)NC(Cc2ccc(NC(=N)N)cc2)P(=O)(Oc2ccc(Cl)cc2)Oc2ccc(Cl)cc2)nn1 (stereo partly drawn) [54b] | 6 ± 0.5 nM | 0.8 nM | – | * ^d Rev. | 230000 ± 36000 M⁻¹ s⁻¹ | Irrev. | – | reversible slow-binding mechanism; also recorded: * ^d Rev | 130 ± 30 nM | 20 ± 1 nM | – | – | – | – |
| C#CCCCOC(=O)NC(Cc1ccc(NC(=N)N)cc1)P(=O)(Oc1ccccc1)Oc1ccccc1 (stereo not drawn) [34b] | 29 ± 5 nM | 3 ± 0.3 nM | 40 × 10^3 ± 2642 M^−1 s^−1 | reversible slow-binding and Rev. | 75 × 10^2 ± 725 M^−1 s^−1 | Irrev. | 712 ± 41 M⁻¹ s⁻¹ | Rev. | 15800 ± 5000 nM | 1110 ± 90 nM | – | 55 fold | over 2000 fold | 5 fold |
| C#CCCCOC(=O)NC(CCCNC(=N)N)P(=O)(Oc1ccc(Cl)cc1)Oc1ccc(Cl)cc1 (stereo not drawn) [33b] | – | – | 35 × 10^2 ± 40 M^−1 s^−1 | irreversibility; also recorded: Irrev | 15 × 10^2 ± 12 M^−1 s^−1 | irreversibility; also recorded: Irrev | 28 × 10^2 ± 82 M^−1 s^−1 | irreversibility; also recorded: irreversible; also recorded: Irrev | – | – | – | – | – | – |
| C[C@@H]1NC(=O)N[C@@H]1CCCCCC(=O)NCCOCCOCCOCCn1cc(CCCOC(=O)NC(CCCNC(=N)N)P(=O)(Oc2ccc(Cl)cc2)Oc2ccc(Cl)cc2)nn1 (stereo partly drawn) [46b] | – | – | 92 × 10^2 ± 349 M^−1 s^−1 | Irrev. | 940 ± 37 M⁻¹ s⁻¹ | Irrev. | 75 × 10^2 ± 1475 M^−1 s^−1 | Irrev. | – | – | – | – | – | – |
| C[C@@H]1NC(=O)N[C@@H]1CCCCCC(=O)NCCOCCOCCOCCn1cc(CCCOC(=O)NC(c2ccc(NC(=N)N)cc2)P(=O)(Oc2ccc(Cl)cc2)Oc2ccc(Cl)cc2)nn1 (stereo partly drawn) [57b] | – | – | 13 × 10^2 ± 340 M^−1 s^−1 | Irrev. | 25 × 10^2 ± 11 M^−1 s^−1 | Irrev. | 65 × 10^2 ± 1,203 M^−1 s^−1 | Irrev. | – | – | – | – | – | – |
| CC(=O)Nc1ccc(OP(=O)(Oc2ccc(NC(C)=O)cc2)C(Cc2ccc(NC(=N)N)cc2)NC(=O)OCCCc2cn(CCOCCOCCOCCNC(=O)CCCCC[C@H]3NC(=O)N[C@H]3C)nn2)cc1 (stereo partly drawn) [52b] | 17 ± 0.5 nM | 1 nM | 86 × 10^3 ± 8250 M^−1 s^−1 | Rev. | 38 × 10^3 ± 4175 M^−1 s^−1 | Irrev. | 18 × 10^3 ± 1184 M^−1 s^−1 | Reversible and Rev. | 680 ± 70 nM | 60 ± 3 nM | – | – | – | – |
| C#CCCCOC(=O)NC(c1ccc(NC(=N)N)cc1)P(=O)(Oc1ccc(Cl)cc1)Oc1ccc(Cl)cc1 (stereo not drawn) [39b, Pent-4-yn-1-yl ((bis(4-chlorophenoxy)phosphoryl)(4-guanidinophenyl)methyl)carbamate] | – | – | – | Irrev. | – | Irrev. | – | irreversible; also recorded: Irrev | – | – | – | – | – | – |
| C#CCCCOC(=O)NC(Cc1ccc(NC(=N)N)cc1)P(=O)(Oc1ccc(NC(C)=O)cc1)Oc1ccc(NC(C)=O)cc1 (stereo not drawn) [35b] | 1 ± 0.1 nM | 0.1 nM | – | * ^d Rev. | 130000 ± 30000 M⁻¹ s⁻¹ | Irrev. | 70 × 10^2 ± 582 M^−1 s^−1 | Rev. | 3200 ± 1800 nM | 120 ± 10 nM | – | – | – | – |
| C#CCCCOC(=O)NC(Cc1ccc(NC(=N)N)cc1)P(=O)(Oc1ccc(Cl)cc1)Oc1ccc(Cl)cc1 (stereo not drawn) [36b] | 8 ± 0.8 nM | 1 ± 0.1 nM | 29 × 10^3 ± 6499 M^−1 s^−1 | Rev. | 320000 ± 29000 M⁻¹ s⁻¹ | Irrev. | 61 × 10^3 ± 6860 M^−1 s^−1 | reversible and Rev. | 340 ± 70 nM | 90 ± 10 nM | – | – | – | – |
| C#CCCCOC(=O)NC(C1CCN(C(=N)N)CC1)P(=O)(Oc1ccccc1)Oc1ccccc1 (stereo not drawn) [41b] | – | – | 17 × 10^2 ± 142 M^−1 s^−1 | irreversible inhibition; also recorded: Irrev | – | – | 27 ± 2 M⁻¹ s⁻¹ | irreversible inhibition; also recorded: Irrev | – | – | – | – | – | – |
| C#CCCCOC(=O)NC(c1ccc(NC(=N)N)cc1)P(=O)(Oc1ccccc1)Oc1ccccc1.O=C(O)C(F)(F)F (stereo not drawn) [37b, Pent-4-yn-1-yl ((diphenoxyphosphoryl)(4-guanidinophenyl)methyl)carbamate trifluoroacetate salt] | – | – | 293 ± 34 M⁻¹ s⁻¹ | Irrev. | 124 ± 23 M⁻¹ s⁻¹ | Irrev. | 375 ± 34 M⁻¹ s⁻¹ | Irrev. | – | – | – | – | – | – |
| C[C@@H]1NC(=O)N[C@@H]1CCCCCC(=O)NCCOCCOCCOCCn1cc(CCCOC(=O)NC(CCCNC(=N)N)P(=O)(Oc2ccccc2)Oc2ccccc2)nn1 (stereo partly drawn) [45b] | – | – | 17 × 10^2 ± 122 M^−1 s^−1 | Irrev. | – | – | 237 ± 42 M⁻¹ s⁻¹ | Irrev. | – | – | – | – | – | – |
